Reference: patent publication US20090118285A1, “USE OF KCNQ-OPENERS FOR TREATING OR REDUCING THE SYMPTOMS OF SCHIZOPHRENIA” (H. Lundbeck A/S, priority 2006, published 2009)

Experiments:
KCNQ channels = details: Wuttke et al. 2005; cited from earlier work
[1] = system: conditioned avoidance response in rats; test: Conditioned avoidance response in rats; format: in vivo, rat; details: rats
Description: In the conditioned avoidance response (CAR) model, rats are trained to respond to a stimulus within a fixed time by moving from one place to another in order to avoid a footshock. Antipsychotics selectively suppress the avoidance response within a certain dose-range without suppressing escape behavior elicited by the appearance of the footshock. The CAR model is considered to be a predictive and reliable animal model that is sensitive to compounds with an antipsychotic potential.
Subjects. Male Wistar rats (Taconic, Denmark) weighing 150 g at the beginning of the study are used. The rats are housed ii pairs and maintained on a 12 h light/dark cycle (lights on 06:00). The animals are fed once daily (approx. 6 pellets/rat) in order to keep the rats at 80% of their free-feeding weight. Water is available ad libitum. Temperature (21±1° C.) and relative humidity (55±5%) are automatically controlled.
Experimental procedure. Conditioned avoidance testing is conducted using four automated shuttle-boxes (ENV-010M, MED-Associates) each placed in a sound-attenuated chamber. Each box is divided into two compartments by a partition with an opening. The position of the animal and crossings from one compartment to the other are detected by two photocells placed on either side of the dividing wall. Upon presentation of the conditioned stimuli (CS), tone and light, the animals have 10 s to cross to the other compartment of the shuttle-box in order to turn the CS off (end the trial) and avoid the appearance of the unconditioned stimulus (UCS). If the rat remains in the same compartment for more than 10 s, the UCS is presented as 0.5 mA scrambled foot-shocks until escape is performed or 10 s in maximal duration. The following behavioural variables are evaluated: avoidance (response to CS within 10 s); escape (response to CS+UCS); escape failures (failure to respond); intertrial crosses and locomotor activity. The rats are habituated to the shuttle-box 3 min before each test session. During training each test session consists of 30 trials with intertrial intervals varying randomly between 20 s and 30 s. Training is carried until the rats display an avoidance of 80% or more, on 3 consecutive days. A test is preceded by a pre-test the day before giving rise to a baseline value for each animal, thus the animals serve as their own control. Seven to eight rats are used at each dose level. A parallel control group receiving the vehicle of the test compound is also included.
Administration of compound.
Statistical analyses. The effects of compounds on avoidance and escape failure behaviours were statistically evaluated by means of a two-way repeated measures ANOVA followed by post hoc comparisons (Student-Newman-Keuls Method) when appropriate. P-levels <0.05 were considered statistically significant.

SMILES: CCOC(=O)Nc1ccc(NCc2ccc(F)cc2)cc1N
- Binding to KCNQ channels (KCNQ channels): bind to KCNQ channels
- % inhibition of avoidance. Relative to baseline. ([1]; 5 mg/kg s.c. 30 min before the test): 1%
- % inhibition of avoidance. Relative to baseline. ([1]; 10 mg/kg s.c. 30 min before the test): 59%
- Escape failures (effect on motor performance) ([1]; all tested doses, data not shown): None of the tested doses caused any incidences of escape failures
